PubChem BioAssay AID1259407 (Chemical Carcinogenesis Research Information System (CCRIS), 2018)
Active and inactive are the calls of the source. The rule behind the calls is not given here.

Test system: CCRIS mutagenicity, Ames/micronucleus/aberration tests
Experiment: CCRIS mutagenicity studies
[1] = Test System: AMES SALMONELLA TYPHIMURIUM, Strain/Indicator: TA100, Metabolic Activation: NONE, Method: PREINCUBATION

Which mutagenic call (Test System: AMES SALMONELLA TYPHIMURIUM, Strain/Indicator: TA100, Metabolic Activation: HAMSTER, LIVER, S-9, 3-METHYLCHOLANTHRENE, Method: PREINCUBATION) does the source give for CC1CN(N=O)CC(C)O1 (centres undefined) here?
The mutagenic call was “active; positive”.

And the mutagenic call (Test System: AMES SALMONELLA TYPHIMURIUM, Strain/Indicator: TA100, Metabolic Activation: HAMSTER, LIVER, S-9, PHENOBARBITAL, Method: PREINCUBATION)?
Its mutagenic call is “active; positive”.

What about the mutagenic call (Test System: AMES SALMONELLA TYPHIMURIUM, Strain/Indicator: TA100, Metabolic Activation: HAMSTER, LIVER, S-9, Method: PREINCUBATION) of the same compound?
The mutagenic call was “active; positive”.

And the mutagenic call (Test System: AMES SALMONELLA TYPHIMURIUM, Strain/Indicator: TA100, Metabolic Activation: HUMAN, LIVER, S-9, Method: PREINCUBATION)?
The mutagenic call was “inactive; negative”.

And the mutagenic call (Test System: AMES SALMONELLA TYPHIMURIUM, Strain/Indicator: TA100, Metabolic Activation: MONKEY, LIVER, S-9, Method: PREINCUBATION)?
The mutagenic call was “active; positive”.

And the mutagenic call (Test System: AMES SALMONELLA TYPHIMURIUM, Strain/Indicator: TA100, Metabolic Activation: MOUSE, LIVER, S-9, 3-METHYLCHOLANTHRENE, Method: PREINCUBATION)?
Its mutagenic call is “active; positive”.

What about the mutagenic call (Test System: AMES SALMONELLA TYPHIMURIUM, Strain/Indicator: TA100, Metabolic Activation: MOUSE, LIVER, S-9, PHENOBARBITAL, Method: PREINCUBATION) of the same compound?
Its mutagenic call is “active; positive”.

And the mutagenic call (Test System: AMES SALMONELLA TYPHIMURIUM, Strain/Indicator: TA100, Metabolic Activation: MOUSE, LIVER, S-9, Method: PREINCUBATION)?
Its mutagenic call is “active; positive”.

And the mutagenic call [1]?
Its mutagenic call is “inactive; negative”.

And the mutagenic call (Test System: AMES SALMONELLA TYPHIMURIUM, Strain/Indicator: TA100, Metabolic Activation: RABBIT, LIVER, S-9, Method: PREINCUBATION)?
Its mutagenic call is “active; positive”.

What about the mutagenic call (Test System: AMES SALMONELLA TYPHIMURIUM, Strain/Indicator: TA100, Metabolic Activation: RAT, LIVER, CYTOSOL, PCB, Method: PREINCUBATION) of the same compound?
The mutagenic call was “inactive; negative”.

What about the mutagenic call (Test System: AMES SALMONELLA TYPHIMURIUM, Strain/Indicator: TA100, Metabolic Activation: RAT, LIVER, MICROSOMES AND CYTOSOL, PCB, Method: PREINCUBATION) of the same compound?
Its mutagenic call is “active; positive”.

What about the mutagenic call (Test System: AMES SALMONELLA TYPHIMURIUM, Strain/Indicator: TA100, Metabolic Activation: RAT, LIVER, MICROSOMES AND G6PDH, PCB, Method: PREINCUBATION) of the same compound?
The mutagenic call was “active; positive”.

What about the mutagenic call (Test System: AMES SALMONELLA TYPHIMURIUM, Strain/Indicator: TA100, Metabolic Activation: RAT, LIVER, MICROSOMES, PCB, Method: PREINCUBATION) of the same compound?
The mutagenic call was “active; positive”.

What about the mutagenic call (Test System: AMES SALMONELLA TYPHIMURIUM, Strain/Indicator: TA100, Metabolic Activation: RAT, LIVER, S-9 (HEATED), PCB, Method: PREINCUBATION) of the same compound?
Its mutagenic call is “inactive; negative”.

What about the mutagenic call (Test System: AMES SALMONELLA TYPHIMURIUM, Strain/Indicator: TA100, Metabolic Activation: RAT, LIVER, S-9, 3-METHYLCHOLANTHRENE, Method: PREINCUBATION) of the same compound?
Its mutagenic call is “active; positive”.

And the mutagenic call (Test System: AMES SALMONELLA TYPHIMURIUM, Strain/Indicator: TA100, Metabolic Activation: RAT, LIVER, S-9, PCB, Method: PREINCUBATION)?
Its mutagenic call is “active; positive”.

And the mutagenic call (Test System: AMES SALMONELLA TYPHIMURIUM, Strain/Indicator: TA100, Metabolic Activation: RAT, LIVER, S-9, PHENOBARBITAL, Method: PREINCUBATION)?
The mutagenic call was “active; positive”.

And the mutagenic call (Test System: AMES SALMONELLA TYPHIMURIUM, Strain/Indicator: TA100, Metabolic Activation: RAT, LIVER, S-9, Method: PREINCUBATION)?
The mutagenic call was “active; positive”.

What about the mutagenic call (Test System: AMES SALMONELLA TYPHIMURIUM, Strain/Indicator: TA100, Metabolic Activation: RAT, LIVER, S-9 WITHOUT NADP+, PCB, Method: PREINCUBATION) of the same compound?
The mutagenic call was “inactive; negative”.

And the mutagenic call (Test System: AMES SALMONELLA TYPHIMURIUM, Strain/Indicator: TA100, Method: PREINCUBATION)?
Its mutagenic call is “active; positive”.

Which results are given for Cc1c(N=C=O)cccc1N=C=O?
mutagenic call (End Point: IN VITRO CHROMOSOMAL ABERRATIONS, Test System: CHL CELLS, Metabolic Activation: RAT, LIVER, S-9, SODIUM PHENOBARBITAL AND 5,6-BENZOFLAVONE): active; positive (ploidy changes); authors report equivocal results for structural chang; mutagenic call (End Point: IN VITRO CHROMOSOMAL ABERRATIONS, Test System: CHO CELLS, Metabolic Activation: RAT, LIVER, S-9, AROCLOR 1254): inactive; negative; precipitation occurred at 500 ug/ml; mutagenic call (Test System: AMES SALMONELLA TYPHIMURIUM, Strain/Indicator: TA97, Metabolic Activation: HAMSTER, LIVER, S-9, AROCLOR 1254 (10%), Method: PREINCUBATION): inactive; negative; mutagenic call (Test System: AMES SALMONELLA TYPHIMURIUM, Strain/Indicator: TA97, Metabolic Activation: NONE, Method: PREINCUBATION): inactive; negative; mutagenic call (Test System: AMES SALMONELLA TYPHIMURIUM, Strain/Indicator: TA97, Metabolic Activation: RAT, LIVER, S-9, AROCLOR 1254 (10%), Method: PREINCUBATION): inactive; negative; mutagenic call (Test System: AMES SALMONELLA TYPHIMURIUM, Strain/Indicator: TA98, Metabolic Activation: HAMSTER, LIVER, S-9, AROCLOR 1254 (10%), Method: PREINCUBATION): active; positive; mutagenic call (Test System: AMES SALMONELLA TYPHIMURIUM, Strain/Indicator: TA98, Metabolic Activation: NONE, Method: PREINCUBATION): inactive; negative; mutagenic call (Test System: AMES SALMONELLA TYPHIMURIUM, Strain/Indicator: TA98, Metabolic Activation: RAT LIVER S-9 AROCLOR 1254 (10 OR 30%), Method: STANDARD PLATE): active; positive; mutagenic call (Test System: AMES SALMONELLA TYPHIMURIUM, Strain/Indicator: TA98, Metabolic Activation: RAT, LIVER, S-9, AROCLOR 1254 (10%), Method: PREINCUBATION): active; positive; mutagenic call (Test System: AMES SALMONELLA TYPHIMURIUM, Strain/Indicator: TA100, Metabolic Activation: HAMSTER, LIVER, S-9, AROCLOR 1254 (10%), Method: PREINCUBATION): active; positive; mutagenic call [1]: inactive; negative; mutagenic call (Test System: AMES SALMONELLA TYPHIMURIUM, Strain/Indicator: TA100, Metabolic Activation: RAT, LIVER, S-9, AROCLOR 1254 (10%), Method: PREINCUBATION): inactive; negative; mutagenic call (Test System: AMES SALMONELLA TYPHIMURIUM, Strain/Indicator: TA1535, Metabolic Activation: HAMSTER, LIVER, S-9, AROCLOR 1254 (10%), Method: PREINCUBATION): inactive; negative; mutagenic call (Test System: AMES SALMONELLA TYPHIMURIUM, Strain/Indicator: TA1535, Metabolic Activation: NONE, Method: PREINCUBATION): inactive; negative; mutagenic call (Test System: AMES SALMONELLA TYPHIMURIUM, Strain/Indicator: TA1535, Metabolic Activation: RAT LIVER S-9, PHENOBARBITAL AND BETA-NAPHTHOFLAVONE, Method: PREINCUBATION): inactive; negative; mutagenic call (Test System: AMES SALMONELLA TYPHIMURIUM, Strain/Indicator: TA1535, Metabolic Activation: RAT, LIVER, S-9, AROCLOR 1254 (10%), Method: PREINCUBATION): inactive; negative; mutagenic call (Test System: AMES SALMONELLA TYPHIMURIUM, Strain/Indicator: TA1537, Metabolic Activation: NONE, Method: PREINCUBATION): inactive; negative; mutagenic call (Test System: AMES SALMONELLA TYPHIMURIUM, Strain/Indicator: TA1537, Metabolic Activation: RAT LIVER S-9, AROCLOR 1254 (10 OR 30%), Method: STANDARD PLATE): inactive; negative; mutagenic call (Test System: AMES SALMONELLA TYPHIMURIUM, Strain/Indicator: TA1537, Metabolic Activation: RAT LIVER S-9, PHENOBARBITAL AND BETA-NAPHTHOFLAVONE, Method: PREINCUBATION): inactive; negative; mutagenic call (Test System: E.COLI, Strain/Indicator: WP2UVRA, Metabolic Activation: NONE, Method: PREINCUBATION): inactive; negative; mutagenic call (Test System: E.COLI, Strain/Indicator: WP2UVRA, Metabolic Activation: RAT LIVER S-9, PHENOBARBITAL AND BETA-NAPHTHOFLAVONE, Method: PREINCUBATION): inactive; negative; mutagenic call (Test System: MOUSE LYMPHOMA, Strain/Indicator: L5178Y (TK+/TK-), Metabolic Activation: NONE, Method: SUSPENSION/PLATE): active; positive; mutagenic call (Test System: MOUSE LYMPHOMA, Strain/Indicator: L5178Y (TK+/TK-), Metabolic Activation: RAT, LIVER, S-9, AROCLOR 1254, Method: SUSPENSION/PLATE): active; positive
